# Source: article PMC6079014, “Calcium is an essential cofactor for metal efflux by the ferroportin transporter family” (Nature Communications, 2018)
# Where two headings read alike, the source gives them in different places.
# Tests used:
# BbFpn Q84E = BbFpn Q84E (Bdellovibrio bacteriovorus, UniProt Q6MLJ0, Q84E); assay: Isothermal titration calorimetry, Q84E BbFpn; format: binding, Bdellovibrio bacteriovorous
# wild type BbFpn = wild type BbFpn (Bdellovibrio bacteriovorus, UniProt Q6MLJ0); assay: biochemical; format: binding, Bdellovibrio bacteriovorous
# Chain of wild type BbFpn (Q6MLJ0 whole entry): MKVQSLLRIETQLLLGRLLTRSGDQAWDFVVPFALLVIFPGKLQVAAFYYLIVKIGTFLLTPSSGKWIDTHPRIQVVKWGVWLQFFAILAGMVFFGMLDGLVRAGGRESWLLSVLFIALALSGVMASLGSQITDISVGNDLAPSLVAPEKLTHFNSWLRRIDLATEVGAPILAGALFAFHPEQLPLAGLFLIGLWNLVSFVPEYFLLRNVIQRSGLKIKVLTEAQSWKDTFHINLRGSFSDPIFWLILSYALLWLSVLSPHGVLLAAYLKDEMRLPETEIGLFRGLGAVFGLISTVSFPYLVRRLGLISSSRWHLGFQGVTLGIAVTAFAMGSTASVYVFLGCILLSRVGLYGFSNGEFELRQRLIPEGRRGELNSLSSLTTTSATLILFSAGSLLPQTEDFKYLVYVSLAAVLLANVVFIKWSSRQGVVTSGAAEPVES
# human Fpn = target: T1, human Fpn (Homo sapiens, UniProt Q9NP59); assay: Radiotracer metal efflux assay in Xenopus oocytes expressing human Fpn; format: cell-based; conditions: for Ability of other alkaline-earth metals to substitute for Ca2+ in activating 55Fe efflux: Ca2+-free media, 2 mM Sr or Ba plus 1 mM Mg2+, or 3 mM Mg2+; for Effect on 55Fe efflux of pharmacologically raising the cytosolic Ca2+ concentration: 1 µM ionomycin (IMN) or 2 µM thapsigargin (THG), media with 0.2% DMSO
# T1 construct: expressed in transfected cells; host or cells: Xenopus laevis oocytes injected with Fpn RNA
# T1 sequence (Q9NP59 1-571): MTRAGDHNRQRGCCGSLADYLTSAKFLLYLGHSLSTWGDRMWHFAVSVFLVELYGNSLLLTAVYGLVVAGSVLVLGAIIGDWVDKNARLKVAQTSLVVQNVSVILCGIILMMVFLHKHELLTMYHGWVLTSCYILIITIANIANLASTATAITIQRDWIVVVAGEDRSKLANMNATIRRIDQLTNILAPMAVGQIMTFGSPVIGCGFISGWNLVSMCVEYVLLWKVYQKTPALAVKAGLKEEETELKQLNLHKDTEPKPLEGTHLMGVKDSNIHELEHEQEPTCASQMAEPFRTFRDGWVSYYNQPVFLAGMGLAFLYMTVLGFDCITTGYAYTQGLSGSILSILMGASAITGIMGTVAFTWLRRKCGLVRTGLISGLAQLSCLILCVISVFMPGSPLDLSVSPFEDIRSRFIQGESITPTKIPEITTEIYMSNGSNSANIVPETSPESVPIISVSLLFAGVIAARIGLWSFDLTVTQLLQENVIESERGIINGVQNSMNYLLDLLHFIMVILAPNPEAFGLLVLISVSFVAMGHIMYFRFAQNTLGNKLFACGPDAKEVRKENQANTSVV
# Procedure: We performed laparotomy and ovariectomy on adult female Xenopus laevis frogs (Nasco, Fort Atkinson, WI) under 2-aminoethylbenzoate methanesulfonate anesthesia (0.2%, by immersion, to effect) following a protocol approved by the University of Cincinnati Institutional Animal Care and Use Committee. Ovarian tissue was isolated and treated for 3 h with […] collagenase A (Roche Diagnostics Corp., Indianapolis, IN) in calcium-free-modified Barths’ medium (MBM) of composition 88 mM NaCl, 1 mM KCl, 2.4 mM NaHCO3, 1.57 mM MgSO4, 0.66 mM NaNO3, 10 mM 4-(2-hydroxyethyl)-1-piperazineethanesulfonic acid (HEPES), buffered to pH 7.5 by using 2-amino-2-hydroxymethyl-propane-1,3-diol (Tris base). We isolated defolliculate stage V–VI oocytes stored at 17 °C in MBM of composition 88 mM NaCl, 1 mM KCl, 2.4 mM NaHCO3, 0.82 MgSO4, 0.75 mM CaCl2, 0.66 mM NaNO3, 10 mM HEPES, buffered to pH 7.5 by using Tris base, with 50 mg l^−1 ciprofloxacin. We expressed in Xenopus oocytes the 1A transcript form of human Fpn fused at its C-terminus with the enhanced green fluorescent protein (GFP) as described. Oocytes were injected with ∼50 ng of Fpn RNA and incubated for 4–6 days before being used in functional assays. Control oocytes were noninjected.
# We measured metal efflux from oocytes expressing Fpn by using a radiotracer assay. Radiochemicals ^55Fe, ^45Ca, ^57Co, ^65Zn were obtained from Perkin-Elmer Life Science Products (Boston, MA) and ^63Ni from the National Isotope Development Center (Oak Ridge, TN). We used ^55Fe (added as FeCl3) at final specific activity 0.4–2.0 GBq mg^−1, ^45Ca (added as CaCl2) at final specific activity 0.5–0.9 GBq mg^−1, ^57Co (added as CoCl2) at final specific activity 1.6 GBq mg^−1, ^65Zn (added as ZnCl2) at final specific activity 0.2 GBq mg^−1, and ^63Ni (added as NiCl2) at final specific activity 0.6 GBq mg^−1. Oocytes were injected with 50 nl of 5 μM metal radionuclide (*M) in vehicle of composition 250 mM KCl, 5 mM nitrilotriacetic acid, trisodium salt, buffered to pH 7.0 with ∼4 mM 2-(N-morpholino)ethanesulfonic acid (MES) (GFS Chemicals, Columbus, OH). After injection, oocytes were briefly stored in ice-cold MBM (for 1–5 min) prior to the start of the efflux assay.
# To initiate the efflux assay, we placed oocytes in standard efflux medium of composition 100 mM NaCl, 1 mM KCl, 2 mM CaCl2, 1 mM MgCl2, 0.5 mM bathophenanthroline disulfonic acid (BPS), 1 mM nitrilotriacetic acid (NTA) trisodium salt, 50 μg/ml apotransferrin (ApoTf) (R&D Systems Inc., Minneapolis, MN), buffered with 0–5 mM MES, and 0–5 mM N′,N′-diethylpiperazine to obtain pH 7.5, with the following exceptions. To prepare Ca^2+-free medium, we replaced 2 mM CaCl2 with 4 mM NaCl and added 1 mM ethylene glycol-bis(2-aminoethyl ether)-N,N,N′,N′-tetraacetic acid (EGTA). To prepare Mg^2+-free medium, we replaced […] MgCl2 with 4 mM NaCl and added 1 mM ethylenediaminetetraacetic acid (EDTA). To measure ^55Fe efflux as a function of extracellular [Ca^2+] over the range 0.1–20 mM Ca^2+ (Figs. 1c, 6b), we adjusted [NaCl] and [CaCl2] on a 2:1 molar basis without the addition of EGTA. Oocytes were then transferred individually in 200 µl of medium to flat-bottomed wells of a 96-well plate and incubated 30 min—within the linear phase of metal efflux[10] —at 23–27 °C with gentle rocking. To terminate efflux, we removed 150 µl of medium (0.75 × [N0–Nt]) from each well for liquid-scintillation counting in Ultima Gold liquid-scintillation cocktail (Perkin-Elmer, Waltham, MA). The corresponding oocytes were rinsed twice in ice-cold medium (without BPS), solubilized with 5% (w/v) sodium dodecyl sulfate, and counted (Nt). We fit our data for oocyte radiotracer content (N) over time (Eq. (1)) and obtained the first-order rate constant (k) for metal radionuclide (*M) efflux for individual oocytes. N0 and Nt are counts per min (cpm) in the oocyte at time = 0 and time = t, respectively.1 Nt=N0⋅exp(-k⋅t) […]
# BbFpn E203A = BbFpn E203A (Bdellovibrio bacteriovorus, UniProt Q6MLJ0, E203A); assay: Isothermal titration calorimetry, E203A BbFpn; format: binding, Bdellovibrio bacteriovorous
# Chain of BbFpn E203A (Q6MLJ0 whole entry E203A): as the sequence (Q6MLJ0 whole entry) above, with E203A counted along it
# BbFpn D24A = BbFpn D24A (Bdellovibrio bacteriovorus, UniProt Q6MLJ0, D24A); assay: Isothermal titration calorimetry, D24A BbFpn; format: binding, Bdellovibrio bacteriovorous
# Chain of BbFpn D24A (Q6MLJ0 whole entry D24A): as the sequence (Q6MLJ0 whole entry) above, with D24A counted along it
# BbFpn N196A = BbFpn N196A (Bdellovibrio bacteriovorus, UniProt Q6MLJ0, N196A); assay: Isothermal titration calorimetry, N196A BbFpn; format: binding, Bdellovibrio bacteriovorous
# Chain of BbFpn N196A (Q6MLJ0 whole entry N196A): as the sequence (Q6MLJ0 whole entry) above, with N196A counted along it
# [1] = Supplementary Figs. 5 and 9, one experiment
# Chain of BbFpn Q84E (Q6MLJ0 whole entry Q84E): as the sequence (Q6MLJ0 whole entry) above, with Q84E counted along it
compound,measurement,setting,value
"[Sr+2] [Sr^2+, strontium]",Binding to Q84E BbFpn by ITC (in words),BbFpn Q84E,no Ca^2+ or Sr^2+ binding
same,Kd,"wild type BbFpn; 20 °C, 20 mM Tris pH 8, 50 mM NaCl, 0.004% LMNG, read-out: Kd (ITC)",4.6e-05 ± 3.3e-06 M
same,"-TΔS, ITC",wild type BbFpn; [1],-19.2 kcal/mol
same,"N (sites), ITC",wild type BbFpn; [1],0.478 ± 6.1e-2
same,"ΔG, ITC",wild type BbFpn; [1],-5.83 kcal/mol
same,"ΔH, ITC",wild type BbFpn; [1],13.4 ± 1.90 kcal/mol
same,Kd,"wild type BbFpn; Supplementary Figs. 5 and 9, one experiment, read-out: KD (M), ITC",4.57e-05 M
same,Ability of other alkaline-earth metals to substitute for Ca2+ in activating 55Fe efflux,human Fpn,could partially substitute
same,Binding to E203A BbFpn by ITC (in words),BbFpn E203A,complete loss
same,Binding to D24A BbFpn by ITC (in words),BbFpn D24A,complete loss
same,Binding to N196A BbFpn by ITC (in words),BbFpn N196A,complete loss
"C[C@H](CCC(=O)O)C[C@H](C)C[C@H](C)C(=O)/C=C(\O)[C@H](C)C[C@H](C)C/C=C/[C@@H](C)[C@@H](O)[C@@H](C)[C@@H](O)C[C@@H]1CC[C@@](C)([C@H]2CC[C@@](C)([C@@H](C)O)O2)O1 [ionomycin, reference compound]",Effect on 55Fe efflux of pharmacologically raising the cytosolic Ca2+ concentration,human Fpn,no effect
"C/C=C(/C)C(=O)O[C@H]1C(C)=C2[C@H]([C@@H]1OC(=O)CCCCCCC)[C@@](C)(OC(C)=O)C[C@H](OC(=O)CCC)[C@@]1(O)[C@H]2OC(=O)[C@@]1(C)O [thapsigargin, reference compound]",Effect on 55Fe efflux of pharmacologically raising the cytosolic Ca2+ concentration,human Fpn,no effect
"[Mg+2] [Mg^2+, magnesium]",Binding to wild type BbFpn by ITC (in words),wild type BbFpn; same experimental conditions as for Ca2+,no observable binding
same,Ability of other alkaline-earth metals to substitute for Ca2+ in activating 55Fe efflux,human Fpn,could not
[Ba+2] [barium],Ability of other alkaline-earth metals to substitute for Ca2+ in activating 55Fe efflux,human Fpn,could not
[Na+] [Na^+],Effect of extracellular Na+ replacement with choline on Fpn-mediated 55Fe efflux,human Fpn; presence or absence of 100 mM extracellular Na+,unaffected
[K+] [K^+],Binding to wild type BbFpn by ITC (in words),wild type BbFpn,no observable binding
